Several values for one entry are separate records, joined by “and”; a condition that tells them apart may be missing. Equal entries are not always repeated.
Experiments:
SCLC patients = test: Phase 2 trial of lurbinectedin monotherapy in SCLC: safety evaluation (NCI-CTCAE v4); format: in vivo, human
Protocol: Patients were evaluated for safety if they had received any partial or complete infusion of lurbinectedin. All adverse events were graded according to the National Cancer Institute-Common Toxicity Criteria for Adverse Events (NCI-CTCAE, v4). The safety profile of patients was monitored throughout the treatment and up to 30 days after the last lurbinectedin infusion (end of treatment), or until the patient started a new anti-tumor therapy or until the date of death, whichever occurred first. Treatment delays, dose reduction requirements, transfusions, and reason for treatment discontinuation was monitored throughout the study. Any treatment-related adverse events were followed until recovery to at least grade 1 or stabilization of symptoms or until the start of a new anti-tumor therapy, whichever occurred first.

[1] = Phase 2 trial of lurbinectedin monotherapy: plasma pharmacokinetics; format: in vivo; conditions: human, intravenous, 3.2 mg/m^2 as 1-hour infusion
Protocol: The plasma PK of lurbinectedin was evaluated during Cycles 1 and 2 in all treated patients. The sampling schedule is shown in Table 15 and Table 16, respectively.
PK analysis of plasma-concentration-time data of lurbinectedin was performed using non-linear mixed-effects modeling and/or non-compartment analysis.

SCLC [2] = test: Post-hoc exploratory analysis of response in SCLC patients who had previously received immunotherapy; format: in vivo, human; conditions: for Lurbinectedin treatment: OS / Lurbinectedin treatment: DoR / Lurbinectedin treatment: PFS: individual SCLC patients with prior immunotherapy
Excerpt: Post-hoc exploratory analysis was done on the response in patients who had previously received immunotherapy (n=8).

advanced solid tumors = test: Lurbinectedin plus irinotecan trial: efficacy per tumor type (RECIST v1.1, PFS, OS); format: in vivo, human; conditions: all doses
Excerpt: Secondary outcome measures included safety evaluation, peak plasma concentration (Cmax), area-under-the plasma concentration versus time curve (AUC), volume of distribution based on the terminal half-life (Vz), volume of distribution at steady state (Vss), clearance (CL), half-life (t½), evaluation of antitumor response (RECIST v1.1, start of treatment until PD, other antitumor therapy, death or until 12 months after the inclusion of the last evaluable patient in the study (end of study), whichever occurs first), progression-free survival (from the date of first infusion of study treatment to the date of progression or death or until 12 months after end of study, whichever occurs first), and overall survival (from the date of first infusion to study treatment to the date or death or until 12 months after end of study, whichever occurs first).
Encouraging activity has been observed in patients with SOLO, including some cases as third line treatment. Signals of activity were also observed in endometrial carcinoma and soft tissue sarcoma (STS) and glioblastoma (GBM). Consequently, a Phase II expansion at the RD to further explore efficacy and safety in SOLO, GBM, STS, and endometrial carcinoma. A total of […] patients were treated at the RD, including n=15 SOLO, n=11 endometrial cancer, n=10 STS, and n=20 GBM patients.

SCLC [3] = test: Phase 2 trial of lurbinectedin monotherapy in SCLC: antitumor activity (ORR, DOR, PFS, OS; RECIST v1.1); format: in vivo, human
[4] = 105 SCLC patients, 3.2 mg/m^2 q3wk
[5] = biochemical abnormality regardless of relation to study drug, patients with laboratory data, NCI-CTCAE v4.0, SCLC
[6] = haematological abnormality regardless of relation to study drug, NCI-CTCAE v4.0, 105 treated SCLC patients
[7] = treatment-related adverse event, NCI-CTCAE v4.0, 105 treated SCLC patients
[8] = resistant disease, listed as Lurbinectedin
[9] = chemotherapy-free interval 90 days or longer (sensitive)

COc1ccc2[nH]c3c(c2c1)CCN[C@]31CS[C@@H]2c3c(OC(C)=O)c(C)c4c(c3[C@H](COC1=O)N1[C@@H]2[C@H]2c3c(cc(C)c(OC)c3O)C[C@@H]([C@@H]1O)N2C)OCO4 [lurbinectedin, Lurbinectedin]
Patients with dose delays caused by neutropenia (SCLC patients; 105 SCLC patients): 12%
Patients with dose reductions caused by neutropenia (SCLC patients; 105 SCLC patients): 16%
Patients with dose administration delayed because of treatment-related adverse events (SCLC patients; [4]): 22%
Patients with dose reduced because of treatment-related adverse events (SCLC patients; [4]): 26%
Discontinuation because of treatment-related adverse events (SCLC patients; 105 treated patients): 2%
Drug-induced liver injury (SCLC patients; 105 treated patients): no cases
Grade 3-4 anemia (SCLC patients; 105 treated patients): 9%
Grade 3-4 febrile neutropenia (SCLC patients; 105 treated patients): 5%
Grade 3-4 leukopenia (SCLC patients; 105 treated patients): 29%
Grade 3-4 neutropenia (SCLC patients; 105 treated patients): 46%
Grade 3-4 thrombocytopenia (SCLC patients; 105 treated patients): 7%
Grade 3 pneumonia (SCLC patients; 105 treated patients): 2%
Patients who received G-CSF secondary prophylaxis or therapy for neutropenia (SCLC patients; 105 treated patients): 22%
Serious treatment-related adverse events (SCLC patients; 105 treated patients): 10%
Serious treatment-related febrile neutropenia (SCLC patients; 105 treated patients): 5%
Serious treatment-related neutropenia (SCLC patients; 105 treated patients): 5%
Treatment-related deaths (SCLC patients; 105 treated patients): No treatment-related deaths
Alanine aminotransferase, Grade 4 (SCLC patients; [5]): 0 n (%) of patients
Alkaline phosphatase, Grade 4 (SCLC patients; [5]): 0 n (%) of patients
Aspartate aminotransferase, Grade 4 (SCLC patients; [5]): 0 n (%) of patients
Creatinine, Grade 3 (SCLC patients; [5]): 0 n (%) of patients
Creatinine, Grade 4 (SCLC patients; [5]): 0 n (%) of patients
Anaemia, Grade 1-2 (SCLC patients; [6]): 91 (87%) n (%) of patients
Anaemia, Grade 3 (SCLC patients; [6]): 9 (9%) n (%) of patients
Anaemia, Grade 4 (SCLC patients; [6]): 0 n (%) of patients
Leucopenia, Grade 1-2 (SCLC patients; [6]): 53 (50%) n (%) of patients
Leucopenia, Grade 3 (SCLC patients; [6]): 20 (19%) n (%) of patients
Leucopenia, Grade 4 (SCLC patients; [6]): 10 (10%) n (%) of patients
Neutropenia, Grade 1-2 (SCLC patients; [6]): 27 (26%) n (%) of patients
Neutropenia, Grade 3 (SCLC patients; [6]): 22 (21%) n (%) of patients
Neutropenia, Grade 4 (SCLC patients; [6]): 26 (25%) n (%) of patients
Thrombocytopenia, Grade 1-2 (SCLC patients; [6]): 39 (37%) n (%) of patients
Thrombocytopenia, Grade 3 (SCLC patients; [6]): 3 (3%) n (%) of patients
Thrombocytopenia, Grade 4 (SCLC patients; [6]): 4 (4%) n (%) of patients
Decreased appetite, Grade 1-2 (SCLC patients; [7]): 22 (21%) n (%) of patients
Decreased appetite, Grade 3 (SCLC patients; [7]): 0 n (%) of patients
Decreased appetite, Grade 4 (SCLC patients; [7]): 0 n (%) of patients
Diarrhoea, Grade 1-2 (SCLC patients; [7]): 13 (14%) n (%) of patients
Diarrhoea, Grade 3 (SCLC patients; [7]): 1 (1%) n (%) of patients
Diarrhoea, Grade 4 (SCLC patients; [7]): 0 n (%) of patients
Fatigue, Grade 1-2 (SCLC patients; [7]): 54 (51%) n (%) of patients
Fatigue, Grade 3 (SCLC patients; [7]): 7 (7%) n (%) of patients
Fatigue, Grade 4 (SCLC patients; [7]): 0 n (%) of patients
Febrile neutropenia, Grade 1-2 (SCLC patients; [7]): 0 n (%) of patients
Febrile neutropenia, Grade 3 (SCLC patients; [7]): 2 (2%) n (%) of patients
Febrile neutropenia, Grade 4 (SCLC patients; [7]): 3 (3%) n (%) of patients
Nausea, Grade 1-2 (SCLC patients; [7]): 34 (32%) n (%) of patients
Nausea, Grade 3 (SCLC patients; [7]): 0 n (%) of patients
Nausea, Grade 4 (SCLC patients; [7]): 0 n (%) of patients
Pneumonia, Grade 1-2 (SCLC patients; [7]): 0 n (%) of patients
Pneumonia, Grade 3 (SCLC patients; [7]): 2 (2%) n (%) of patients
Pneumonia, Grade 4 (SCLC patients; [7]): 0 n (%) of patients
Skin ulcer, Grade 1-2 (SCLC patients; [7]): 0 n (%) of patients
Skin ulcer, Grade 3 (SCLC patients; [7]): 1 (1%) n (%) of patients
Skin ulcer, Grade 4 (SCLC patients; [7]): 0 n (%) of patients
Vomiting, Grade 1-2 (SCLC patients; [7]): 19 (18%) n (%) of patients
Vomiting, Grade 3 (SCLC patients; [7]): 0 n (%) of patients
Vomiting, Grade 4 (SCLC patients; [7]): 0 n (%) of patients
AUC(0-inf) [1]: ~551 ng·h/mL
Cmax ([1]; read-out: Mean total plasma Cmax): ~107 ng/mL
Lurbinectedin treatment: OS (SCLC [2]; resistant disease): 12.6 months
Lurbinectedin treatment: DoR (SCLC [2]; [8]): 5.6 months and 5.3 months and 5.1 months
Lurbinectedin treatment: OS (SCLC [2]; [8]): 12.0 months and 4.9 months and 14.9 months and 6.9+ months
Lurbinectedin treatment: PFS (SCLC [2]; [8]): 6.0 months and 1.3 months and 8.3 months and 6.9 months and 6.3 months
Lurbinectedin treatment: DoR (SCLC [2]; sensitive disease): 6.4 months and 2.8 months
Lurbinectedin treatment: OS (SCLC [2]; sensitive disease): 9.3 months and 10.8 months and 2.3 months
Lurbinectedin treatment: PFS (SCLC [2]; sensitive disease): 7.6 months and 4.7 months and 1.3 months
Response to single-agent lurbinectedin in patients who had previously received immunotherapy (SCLC [2]; post-hoc, n=8): trend for a better response
CBR (ORR + SD >4 mo) (advanced solid tumors; Endometrial (n = 10 evaluable)): 60%
DCR (ORR + SD) (advanced solid tumors; Endometrial (n = 10 evaluable)): 100%
Median DoR (advanced solid tumors; Endometrial (n = 10 evaluable)): 4.6 mo
Median PFS (advanced solid tumors; Endometrial (n = 10 evaluable)): 7.1 mo
ORR* (PR) (advanced solid tumors; Endometrial (n = 10 evaluable)): 3 (30) n(%)
PFS rate at 6 mo (advanced solid tumors; Endometrial (n = 10 evaluable)): 50%
CBR (ORR + SD >4 mo) (advanced solid tumors; GBM (n = 16 evaluable)): 18.8%
DCR (ORR + SD) (advanced solid tumors; GBM (n = 16 evaluable)): 43.8%
Median PFS (advanced solid tumors; GBM (n = 16 evaluable)): 1.4 mo
ORR* (PR) (advanced solid tumors; GBM (n = 16 evaluable)): 1 (6.3) n(%)
PFS rate at 6 mo (advanced solid tumors; GBM (n = 16 evaluable)): 7.1%
CBR (ORR + SD >4 mo) (advanced solid tumors; SCLC (n = 13 evaluable)): 76.9%
DCR (ORR + SD) (advanced solid tumors; SCLC (n = 13 evaluable)): 84.6%
Median DoR (advanced solid tumors; SCLC (n = 13 evaluable)): 4.6 mo
Median PFS (advanced solid tumors; SCLC (n = 13 evaluable)): 4.3 mo
ORR* (PR) (advanced solid tumors; SCLC (n = 13 evaluable)): 9 (69.2) n(%)
PFS rate at 6 mo (advanced solid tumors; SCLC (n = 13 evaluable)): 36.3%
CBR (ORR + SD >4 mo) (advanced solid tumors; STS (n = 10 evaluable)): 40%
DCR (ORR + SD) (advanced solid tumors; STS (n = 10 evaluable)): 80%
Median PFS (advanced solid tumors; STS (n = 10 evaluable)): 2.6 mo
ORR* (PR) (advanced solid tumors; STS (n = 10 evaluable)): 0 n(%)
PFS rate at 6 mo (advanced solid tumors; STS (n = 10 evaluable)): 33.8%
Overall response rate (CR + PR) (SCLC [3]; IRC assessment, overall (n = 105)): 30.5%
Duration of response, median (SCLC [3]; IRC assessment, resistant disease (CTFI <90 days)): 4.8 months
Overall response rate (CR + PR) (SCLC [3]; IRC assessment, resistant disease (CTFI <90 days, n = 45)): 13.3%
Duration of response, median (SCLC [3]; IRC assessment, sensitive disease (CTFI ≥90 days)): 5.3 months
Overall response rate (CR + PR) (SCLC [3]; IRC assessment, sensitive disease (CTFI ≥90 days, n = 60)): 43.3%
Duration of response, median (SCLC [3]; Investigator assessment, overall): 5.3 months
Duration of response, median (SCLC [3]; Investigator assessment, resistant disease (CTFI <90 days)): 4.7 months
Duration of response, median (SCLC [3]; Investigator assessment, sensitive disease (CTFI ≥90 days)): 6.2 months
Overall response rate (CR + PR) (SCLC [3]; Investigator assessment, sensitive disease (CTFI ≥90 days, n = 60)): 45.0%
Median progression-free survival (SCLC [3]; Investigator-assessed, overall population): 3.5 months
Patients alive at 1 year after the first dose (SCLC [3]; chemotherapy-free interval 90 days or longer (n = 60)): 48%
Median overall survival (SCLC [3]; [9]): 11.9 months
Median progression-free survival (SCLC [3]; [9]): 4.6 months
Median overall survival (SCLC [3]; overall population): 9.3 months
Median overall survival of patients with initial objective response (post-hoc) (SCLC [3]; responders with sensitive disease): 15.8 months

Reference: patent US12714706B2, “Methods of treating small cell lung cancer with lurbinectedin formulations” (PHARMA MAR, S.A., priority 2019, dated 2026)
